Experimental data reported in US20220378707A1, “1-(((2S,3S,4S)-3-ETHYL-4-FLUORO-5-OXOPYRROLIDIN-2-YL)METHOXY)-7-METHOXYISOQUINOLINE-6-CARBOXAMIDE COMBINATIONS AND ORAL DOSAGE FORMS” (Pfizer Inc., priority 2019, published 2022).
Entries after “also recorded” stand apart in the source; their conditions may differ.

Key:
Format in all cases: cell-based, human
[1] = tested on: HUVEC+(IL-4 and histamine); test: BioMAP 4H system; conditions: Th2 vascular inflammation, tofacitinib 37-1000 nM
From the text: (§1) The BioMAP systems consist of human primary cell-based systems designed to model different aspects of the human body in an in vitro format. The 12 systems tested characterized the test compounds across a broad set of systems modeling various human disease states. BioMAP systems were constructed with one or more primary cell types from healthy human donors, with stimuli (such as cytokines or growth factors) added to capture relevant signaling networks that naturally occur in human tissue or pathological conditions. Vascular biology was modeled in both a Th1 (3C system) and a Th2 (4H system) inflammatory environment, as well as in a Th1 inflammatory state specific to arterial smooth muscle cells (CASM3C system). […]
(§2) Systems were derived from either single cell types or co-culture systems. […] Test agents were prepared in DMSO (final concentration <0.1%) and were added 1 hour before stimulation, and remained in culture for 24 hours or as otherwise indicated (48-hrs, MyoF system; 72-hrs, BT system (soluble readouts); 168-hrs, BT system (secreted IgG)). […] Soluble factors from supernatants were quantified using either HTRF® detection, bead-based multiplex immunoassay or capture ELISA. Overt adverse effects of test agents on cell proliferation and viability (cytotoxicity) were detected by sulforhodamine B (SRB) staining, for adherent cells, and alamarBlue® reduction for cells in suspension.

[2] = tested on: bronchial epithelial cells and HDFn+(TNFα and IL-4); test: BioMAP BF4T system; conditions: Th2 airway inflammation; tofacitinib 37-1000 nM
From the text: as §1, §2

[3] = tested on: keratinocytes and HDFn+(IL-1β, TNFα and IFNγ); test: BioMAP KF3CT system; conditions: Th1 cutaneous inflammation; tofacitinib 37-1000 nM
From the text: as §1, §2

C[C@@H]1CCN(C(=O)CC#N)C[C@@H]1N(C)c1ncnc2[nH]ccc12 [tofacitinib, 3-((3R,4R)-4-Methyl-3-(methyl(7H-pyrrolo[2,3-d]pyrimidin-4-yl)amino)piperidin-1-yl)-3-oxopropanenitrile] was tested, and the “Inhibition of biomarker readouts in the 4H system” value [1] was “MCP-1 and Eto3 and VCAM-1 and P-selectin”, the “Inhibition of biomarker readouts in the 4H system” value ([1]; listed as Tofacitinib) was “active over all tested concentrations; also recorded: MCP-1, Eot3, VCAM-1, P-selectin” and the “Increased biomarker readouts in the BF4T system” value [2] was “MMP9”. The “Inhibition of biomarker readouts in the BF4T system” value [2] was “active over all tested concentrations; also recorded: Eot3, and VCAM-1” and the “Inhibition of biomarker readouts in the KF3CT system” value [3] was “MCP-1”.
